Assay results published in ChEMBL document CHEMBL3045188, “Synthesis and antibacterial, antimycobacterial and docking studies of novel N-piperazinyl fluoroquinolones” (Med Chem Res, 2013).
In brackets after ≈: the same amount, converted by molar mass. Activity calls are given as the source filed them. The rule behind the calls is not given here.

Assays:
[1] = system: Mycobacterium tuberculosis; experiment: Antimycobacterial activity against Mycobacterium tuberculosis H37Rv assessed as growth inhibition after 21 days by broth dilution assay; type: functional
Escherichia coli = experiment: Antibacterial activity against Escherichia coli MTCC 1089 assessed as growth inhibition after 18 hr by broth microdilution method; type: functional; details: MTCC 1089, 18 h
Pseudomonas aeruginosa = experiment: Antibacterial activity against Pseudomonas aeruginosa ATCC 25619 assessed as growth inhibition after 18 hr by broth microdilution method; type: functional; details: ATCC 25619, 18 h
Corynebacterium = experiment: Antibacterial activity against Corynebacterium ATCC 29355 assessed as growth inhibition after 18 hr by broth microdilution method; type: functional; details: ATCC 29355, 18 h
Staphylococcus aureus = experiment: Antibacterial activity against Staphylococcus aureus ATCC 25365 assessed as growth inhibition after 18 hr by broth microdilution method; type: functional; details: ATCC 25365, 18 h
Vero = experiment: Cytotoxicity against Chlorocebus aethiops (African green monkey) Vero cells assessed as inhibition of cell viability after 96 hr by MTT assay; type: cell-based; details: Chlorocebus sabaeus
[2] = Selectivity index, ratio of IC50 for african green monkey Vero cells to MIC for Mycobacterium tuberculosis H37Rv; type: toxicity, cell-based; details: read-out: Selectivity Index

CCn1cc(C(=O)O)c(=O)c2cc(F)c(N3CCN(c4nnc(SCC(=O)c5ccc(OC)cc5)s4)CC3)cc21
MIC ([1]; 504 h): 10 µg/mL (≈ 17.1 µM)
MIC (Escherichia coli): > 64 µg/mL
MIC (Pseudomonas aeruginosa): > 64 µg/mL
MIC (Corynebacterium): 1 µg/mL (≈ 1.71 µM)
MIC (Staphylococcus aureus): 2 µg/mL (≈ 3.43 µM)

O=C(CSc1nnc(N2CCN(c3cc4c(cc3F)c(=O)c(C(=O)O)cn4C3CC3)CC2)s1)c1ccc(F)cc1
MIC ([1]; 504 h): 5 µg/mL (≈ 8.57 µM)
MIC (Escherichia coli): 16 µg/mL (≈ 27.4 µM)
MIC (Pseudomonas aeruginosa): 32 µg/mL (≈ 54.8 µM)
MIC (Corynebacterium): 4 µg/mL (≈ 6.85 µM)
MIC (Staphylococcus aureus): 8 µg/mL (≈ 13.7 µM)

CO[C@H]1/C=C/O[C@@]2(C)Oc3c(C)c(O)c4c(O)c(c(/C=N/N5CCN(C)CC5)c(O)c4c3C2=O)NC(=O)/C(C)=C\C=C\[C@H](C)[C@H](O)[C@@H](C)[C@@H](O)[C@@H](C)[C@H](OC(C)=O)[C@@H]1C [RIFAMPIN]
IC50 (Vero): > 10 µg/mL
selectivity ratio [2]: > 10
MIC ([1]; 504 h): 1 µg/mL (≈ 1.22 µM)

O=C(CSc1nnc(N2CCN(c3cc4c(cc3F)c(=O)c(C(=O)O)cn4C3CC3)CC2)s1)c1ccc(Cl)cc1
IC50 (Vero): 3 µg/mL (≈ 5 µM)
selectivity ratio [2]: 3
MIC ([1]; 504 h): 1 µg/mL (≈ 1.67 µM)
MIC (Escherichia coli): 16 µg/mL (≈ 26.7 µM)
MIC (Pseudomonas aeruginosa): > 64 µg/mL
MIC (Corynebacterium): 2 µg/mL (≈ 3.33 µM)
MIC (Staphylococcus aureus): 4 µg/mL (≈ 6.67 µM)

NNC(=O)c1ccncc1 [ISONIAZID]
IC50 (Vero): > 12 µg/mL
MIC ([1]; 504 h): 1.5 µg/mL (≈ 10.9 µM)

O=C(O)c1cn(C2CC2)c2cc(N3CCNCC3)c(F)cc2c1=O [CIPROFLOXACIN]
MIC (Pseudomonas aeruginosa): 4 µg/mL (≈ 12.1 µM)
MIC (Staphylococcus aureus): 2 µg/mL (≈ 6.04 µM)

CCn1cc(C(=O)O)c(=O)c2cc(F)c(N3CCN(c4nnc(SCC(=O)c5ccc([N+](=O)[O-])cc5)s4)CC3)cc21
IC50 (Vero): > 10.2 µg/mL
selectivity ratio [2]: > 10.2
MIC ([1]; 504 h): 1 µg/mL (≈ 1.67 µM)
MIC (Escherichia coli): 16 µg/mL (≈ 26.7 µM)
MIC (Pseudomonas aeruginosa): > 64 µg/mL
MIC (Corynebacterium): 1 µg/mL (≈ 1.67 µM)
MIC (Staphylococcus aureus): 2 µg/mL (≈ 3.34 µM)

CCn1cc(C(=O)O)c(=O)c2cc(F)c(N3CCN(c4nnc(SCC(=O)c5ccc(Br)cc5)s4)CC3)cc21
IC50 (Vero): 5 µg/mL (≈ 7.9 µM)
selectivity ratio [2]: 2
MIC ([1]; 504 h): 2.5 µg/mL (≈ 3.95 µM)
MIC (Escherichia coli): 32 µg/mL (≈ 50.6 µM)
MIC (Pseudomonas aeruginosa): > 64 µg/mL
MIC (Corynebacterium): 4 µg/mL (≈ 6.32 µM)
MIC (Staphylococcus aureus): 8 µg/mL (≈ 12.6 µM)

CCn1cc(C(=O)O)c(=O)c2cc(F)c(N3CCN(c4nnc(SCC(=O)c5ccccc5)s4)CC3)cc21
MIC [1]: inactive
MIC (Escherichia coli): > 64 µg/mL
MIC (Pseudomonas aeruginosa): > 64 µg/mL
MIC (Corynebacterium): 16 µg/mL (≈ 28.9 µM)
MIC (Staphylococcus aureus): 32 µg/mL (≈ 57.8 µM)

Cc1ccc(C(=O)CSc2nnc(N3CCN(c4cc5c(cc4F)c(=O)c(C(=O)O)cn5C4CC4)CC3)s2)cc1
MIC [1]: inactive
MIC (Escherichia coli): 16 µg/mL (≈ 27.6 µM)
MIC (Pseudomonas aeruginosa): > 64 µg/mL
MIC (Corynebacterium): 4 µg/mL (≈ 6.9 µM)
MIC (Staphylococcus aureus): 8 µg/mL (≈ 13.8 µM)

CCn1cc(C(=O)O)c(=O)c2cc(F)c(N3CCN(c4nnc(SCC(=O)c5ccc(Cl)cc5)s4)CC3)cc21
IC50 (Vero): 4 µg/mL (≈ 6.8 µM)
selectivity ratio [2]: 2.67
MIC ([1]; 504 h): 1.5 µg/mL (≈ 2.55 µM)
MIC (Escherichia coli): 32 µg/mL (≈ 54.4 µM)
MIC (Pseudomonas aeruginosa): > 64 µg/mL
MIC (Corynebacterium): 2 µg/mL (≈ 3.4 µM)
MIC (Staphylococcus aureus): 4 µg/mL (≈ 6.8 µM)

O=C(CSc1nnc(N2CCN(c3cc4c(cc3F)c(=O)c(C(=O)O)cn4C3CC3)CC2)s1)c1ccc(Br)cc1
IC50 (Vero): 6 µg/mL (≈ 9.31 µM)
selectivity ratio [2]: 3
MIC ([1]; 504 h): 2 µg/mL (≈ 3.1 µM)
MIC (Escherichia coli): 16 µg/mL (≈ 24.8 µM)
MIC (Pseudomonas aeruginosa): > 64 µg/mL
MIC (Corynebacterium): 4 µg/mL (≈ 6.21 µM)
MIC (Staphylococcus aureus): 8 µg/mL (≈ 12.4 µM)

O=C(CSc1nnc(N2CCN(c3cc4c(cc3F)c(=O)c(C(=O)O)cn4C3CC3)CC2)s1)c1ccc([N+](=O)[O-])cc1
IC50 (Vero): > 6.1 µg/mL
selectivity ratio [2]: > 12.2
MIC ([1]; 504 h): 0.5 µg/mL (≈ 0.819 µM)
MIC (Escherichia coli): 32 µg/mL (≈ 52.4 µM)
MIC (Pseudomonas aeruginosa): > 64 µg/mL
MIC (Corynebacterium): 0.5 µg/mL (≈ 0.819 µM)
MIC (Staphylococcus aureus): 1 µg/mL (≈ 1.64 µM)

CCn1cc(C(=O)O)c(=O)c2cc(F)c(N3CCN(c4nnc(SCC(=O)c5ccc(C)cc5)s4)CC3)cc21
MIC [1]: inactive
MIC (Escherichia coli): > 64 µg/mL
MIC (Pseudomonas aeruginosa): > 64 µg/mL
MIC (Corynebacterium): 4 µg/mL (≈ 7.05 µM)
MIC (Staphylococcus aureus): 8 µg/mL (≈ 14.1 µM)

CCn1cc(C(=O)O)c(=O)c2cc(F)c(N3CCN(c4nnc(SCC(=O)c5ccc(F)cc5)s4)CC3)cc21
MIC ([1]; 504 h): 5 µg/mL (≈ 8.75 µM)
MIC (Escherichia coli): > 64 µg/mL
MIC (Pseudomonas aeruginosa): 32 µg/mL (≈ 56 µM)
MIC (Corynebacterium): 2 µg/mL (≈ 3.5 µM)
MIC (Staphylococcus aureus): 4 µg/mL (≈ 7 µM)

CCn1cc(C(=O)O)c(=O)c2cc(F)c(N3CCNCC3)cc21 [NORFLOXACIN]
MIC (Escherichia coli): 2 µg/mL (≈ 6.26 µM)
MIC (Pseudomonas aeruginosa): 4 µg/mL (≈ 12.5 µM)
MIC (Corynebacterium): 2 µg/mL (≈ 6.26 µM)
MIC (Staphylococcus aureus): 2 µg/mL (≈ 6.26 µM)

COc1ccc(C(=O)CSc2nnc(N3CCN(c4cc5c(cc4F)c(=O)c(C(=O)O)cn5C4CC4)CC3)s2)cc1
MIC ([1]; 504 h): 10 µg/mL (≈ 16.8 µM)
MIC (Escherichia coli): 32 µg/mL (≈ 53.7 µM)
MIC (Pseudomonas aeruginosa): > 64 µg/mL
MIC (Corynebacterium): 1 µg/mL (≈ 1.68 µM)
MIC (Staphylococcus aureus): 2 µg/mL (≈ 3.36 µM)

O=C(CSc1nnc(N2CCN(c3cc4c(cc3F)c(=O)c(C(=O)O)cn4C3CC3)CC2)s1)c1ccccc1
MIC [1]: inactive
MIC (Escherichia coli): 32 µg/mL (≈ 56.6 µM)
MIC (Pseudomonas aeruginosa): > 64 µg/mL
MIC (Corynebacterium): 16 µg/mL (≈ 28.3 µM)
MIC (Staphylococcus aureus): 16 µg/mL (≈ 28.3 µM)
